pEC50: −log10 of the molar value. Like-named read-outs stand apart in the source and are kept apart here.
Target: T1, horseradish peroxidase (HRP) tagged delF508-CFTR (Homo sapiens, UniProt P13569, DEL508-508)
T1 construct: expressed in transfected cells
Assay: Measurement of delF508-CFTR-HRP surface expression in CFBE41o- cells;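 on DelF508-CFTR-HRP Amax %: percent efficacy relative to reference corrector lumacaftor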
Format: cell-based
Settings: for pEC50: read-out: DelF508-CFTR-HRP EC50; for Emax: read-out: DelF508-CFTR-HRP Amax %
Outline: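 CFBE41o- bronchial epithelial cells stably expressing delF508-CFTR with HRP in the fourth extracellular loop; expression induced 48h with 500 ng/mL doxycycline, then compounds added (top 10 μM, 10-point 3-fold series, ≤0.5% DMSO) for 24h at 37° C. Surface HRP measured by luminescence with cell-impermeant substrate; EC50 from logistic fit of triplicates, plate-normalized to lowest concentration; efficacy also relative to a reference corrector.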

[1] = CFBE41o- cells, mean of at least two replicates
[2] = CFBE41o- cells, surface expression Amax
[3] = delF508-CFTR-HRP surface expression, CFBE41o- cells

T1 sequence (P13569 with tags, fused parts or gaps DEL508-508): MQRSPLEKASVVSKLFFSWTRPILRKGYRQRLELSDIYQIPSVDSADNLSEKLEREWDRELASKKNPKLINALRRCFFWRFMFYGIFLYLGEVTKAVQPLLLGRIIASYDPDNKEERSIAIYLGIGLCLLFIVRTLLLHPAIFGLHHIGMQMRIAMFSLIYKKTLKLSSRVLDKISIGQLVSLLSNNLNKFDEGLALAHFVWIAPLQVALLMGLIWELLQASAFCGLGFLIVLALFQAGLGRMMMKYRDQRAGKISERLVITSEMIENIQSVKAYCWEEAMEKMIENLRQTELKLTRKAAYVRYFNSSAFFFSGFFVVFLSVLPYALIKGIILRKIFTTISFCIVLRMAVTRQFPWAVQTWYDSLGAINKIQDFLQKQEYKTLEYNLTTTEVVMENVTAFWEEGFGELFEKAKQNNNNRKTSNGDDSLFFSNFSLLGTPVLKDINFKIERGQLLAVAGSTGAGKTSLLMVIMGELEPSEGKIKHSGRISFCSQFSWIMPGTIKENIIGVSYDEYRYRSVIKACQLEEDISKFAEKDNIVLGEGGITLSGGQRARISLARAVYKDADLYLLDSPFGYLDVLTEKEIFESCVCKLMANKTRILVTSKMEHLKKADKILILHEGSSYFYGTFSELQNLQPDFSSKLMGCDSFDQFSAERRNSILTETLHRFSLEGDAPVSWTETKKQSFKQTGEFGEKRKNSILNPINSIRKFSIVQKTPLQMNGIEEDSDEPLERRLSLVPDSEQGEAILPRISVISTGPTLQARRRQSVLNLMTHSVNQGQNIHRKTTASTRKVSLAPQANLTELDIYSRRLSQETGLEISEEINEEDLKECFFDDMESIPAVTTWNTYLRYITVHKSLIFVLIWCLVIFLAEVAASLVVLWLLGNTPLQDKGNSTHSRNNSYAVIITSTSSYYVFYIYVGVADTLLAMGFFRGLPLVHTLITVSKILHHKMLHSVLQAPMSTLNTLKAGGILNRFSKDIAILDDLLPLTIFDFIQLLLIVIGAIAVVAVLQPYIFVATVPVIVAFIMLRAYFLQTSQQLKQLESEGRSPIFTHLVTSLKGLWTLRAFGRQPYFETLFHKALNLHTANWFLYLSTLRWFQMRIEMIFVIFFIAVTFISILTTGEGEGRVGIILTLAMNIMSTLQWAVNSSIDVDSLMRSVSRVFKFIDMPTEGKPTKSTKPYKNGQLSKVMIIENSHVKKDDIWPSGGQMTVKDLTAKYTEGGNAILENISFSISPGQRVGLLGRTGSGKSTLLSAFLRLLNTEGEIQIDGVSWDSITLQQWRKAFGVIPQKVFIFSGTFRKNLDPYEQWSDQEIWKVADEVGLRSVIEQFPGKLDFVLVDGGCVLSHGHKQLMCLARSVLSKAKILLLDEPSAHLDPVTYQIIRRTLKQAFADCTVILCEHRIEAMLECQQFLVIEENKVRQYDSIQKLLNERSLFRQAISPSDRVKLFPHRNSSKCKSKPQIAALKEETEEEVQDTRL

Row | Compound | pEC50 [1] | Emax [2] | Emax [3] | pEC50 [3] | Emax (CFBE41o-)
1 | CCCC1(C(=O)O)CCCN(c2cccc(S(=O)(=O)Nc3ccc(Cl)c(-c4c(C)cccc4C)n3)n2)C1 (stereo not drawn) [Example 457, 1-(6-(N-(5-chloro-6-(2,6-dimethylphenyl)pyridin-2-yl)sulfamoyl)pyridin-2-yl)-3-propylpiperidine-3-carboxylic Acid] | 6.21 | 702% |  |  | 
2 | CC(C)c1ccccc1-c1nc(NS(=O)(=O)c2cccc(N3CCC[C@H](C(=O)O)C3)n2)ccc1C(F)(F)F [Example 376, (S)-1-(6-(N-(6-(2-isopropylphenyl)-5-(trifluoromethyl)pyridin-2-yl)sulfamoyl)pyridin-2-yl)piperidine-3-carboxylic Acid] |  |  | 629% | 6.04 | 
3 | Cc1ccc(F)cc1-c1nc(NS(=O)(=O)c2cccc(N3CCC34CNC4)n2)ccc1Cl [Example 310, N-(5-chloro-6-(5-fluoro-2-methylphenyl)pyridin-2-yl)-6-(1,6-diazaspiro[3.3]heptan-1-yl)pyridine-2-sulfonamide] |  |  | 137% | 5.30 | 
4 | Cc1cccc(F)c1-c1nc(NS(=O)(=O)c2ccc(N)nc2)ccc1Cl [Example 60, 6-amino-N-(5-chloro-6-(2-fluoro-6-methylphenyl)pyridin-2-yl)pyridine-3-sulfonamide] |  |  | 253% | 5.53 | 
5 | Cc1ccccc1-c1nc(NS(=O)(=O)c2cccc(N3CCO[C@@H](C(=O)O)C3)n2)ccc1C(F)(F)F [Example 339, (2R)-4-(6-{[6-(2-methylphenyl)-5-(trifluoromethyl)pyridin-2-yl]sulfamoyl}pyridin-2-yl)morpholine-2-carboxylic Acid] |  |  | 122% | 5.64 | 
6 | Cc1ccccc1-c1nc(NS(=O)(=O)c2cccc(N)n2)ccc1Cl [Example 14, 6-Amino-N-(5-chloro-6-(o-tolyl)pyridin-2-yl)pyridine-2-sulfonamide] |  |  | 523% | 5.87 | 
7 | Cc1cccc(C)c1-c1nc(NS(=O)(=O)c2cccc(N3CCC(O)(C(=O)O)CC3)n2)ccc1Cl [Example 261, 1-(6-{[5-chloro-6-(2,6-dimethylphenyl)pyridin-2-yl]sulfamoyl}pyridin-2-yl)-4-hydroxypiperidine-4-carboxylic Acid] |  |  | 22.8% | 5.38 | 
8 | CC1(C(=O)O)CCN(c2cccc(S(=O)(=O)Nc3ccc(C(F)(F)F)c(-c4ccccc4C4CCCC4)n3)n2)CC1 [Example 379, 1-(6-(N-(6-(2-cyclopentylphenyl)-5-(trifluoromethyl)pyridin-2-yl)sulfamoyl)pyridin-2-yl)-4-methylpiperidine-4-carboxylic Acid] | 5.97 |  |  |  | 646%
9 | Cc1c(F)cccc1-c1nc(NS(=O)(=O)c2cccc(N3CCC[C@](C)(C(=O)O)C3)n2)ccc1C(F)(F)F [Example 436, (3S)-1-(6-{[6-(3-fluoro-2-methylphenyl)-5-(trifluoromethyl)pyridin-2-yl]sulfamoyl}pyridin-2-yl)-3-methylpiperidine-3-carboxylic Acid] | 5.75 | 438% |  |  | 
10 | CC1(C(=O)O)CCCN(c2cccc(S(=O)(=O)Nc3ccc(C(F)(F)F)c(-c4ccccc4CCO)n3)n2)C1 (stereo not drawn) [Example 445, 1-(6-(N-(6-(2-(2-hydroxyethyl)phenyl)-5-(trifluoromethyl)pyridin-2-yl)sulfamoyl)pyridin-2-yl)-3-methylpiperidine-3-carboxylic Acid] | 5.57 | 94.1% |  |  | 
11 | Nc1cccc(S(=O)(=O)Nc2ccc(Cl)c(-c3c(F)cccc3Cl)n2)n1 [Example 39, 6-amino-N-(5-chloro-6-(2-chloro-6-fluorophenyl)pyridin-2-yl)pyridine-2-sulfonamide] |  |  | 374% | 5.72 | 
12 | Cc1cc(C#N)ccc1-c1nc(NS(=O)(=O)c2ccnc(N)c2)ccc1Cl [Example 92, 2-amino-N-(5-chloro-6-(4-cyano-2-methylphenyl)pyridin-2-yl)pyridine-4-sulfonamide] |  |  | 23.9% | 5.96 | 
13 | Cc1ccc(OC(F)(F)F)cc1-c1nc(NS(=O)(=O)c2cccc(N)n2)ccc1C(F)(F)F [Example 82, 6-amino-N-(6-(2-methyl-5-(trifluoromethoxy)phenyl)-5-(trifluoromethyl)pyridin-2-yl)pyridine-2-sulfonamide] |  |  | 124% | 6.03 | 
14 | Cc1ccccc1-c1nc(NS(=O)(=O)c2cccc(N3CCN(C(=O)OC(C)(C)C)C[C@@H]3C(=O)O)n2)ccc1C(F)(F)F [Example 347, (2R)-4-[(tert-butoxy)carbonyl]-1-(6-{[6-(2-methylphenyl)-5-(trifluoromethyl)pyridin-2-yl]sulfamoyl}pyridin-2-yl)piperazine-2-carboxylic Acid] |  |  | 245% | 5.72 | 
15 | Cc1ccc(C#N)cc1-c1nc(NS(=O)(=O)c2cccc(N)n2)ccc1C(F)(F)F [Example 83, 6-amino-N-(6-(5-cyano-2-methylphenyl)-5-(trifluoromethyl)pyridin-2-yl)pyridine-2-sulfonamide] |  |  | 115% | 5.39 | 
16 | CC(C)c1ccccc1-c1nc(NS(=O)(=O)c2cccc(N)n2)ccc1Cl [Example 50, 6-amino-N-(5-chloro-6-(2-isopropylphenyl)pyridin-2-yl)pyridine-2-sulfonamide] |  |  | 332% | 6.17 | 

Second part, led by results:

Row | pEC50 [1] | Emax [2] | Emax [3] | pEC50 [3] | Compound | Emax (CFBE41o-)
17 | 5.64 | 714% |  |  | Cc1ccc(F)cc1-c1nc(NS(=O)(=O)c2cccc(N3CCC[C@](C)(C(=O)O)C3)n2)ccc1C(F)(F)F [Example 435, (3S)-1-(6-{[6-(5-fluoro-2-methylphenyl)-5-(trifluoromethyl)pyridin-2-yl]sulfamoyl}pyridin-2-yl)-3-methylpiperidine-3-carboxylic Acid] | 
18 | 5.70 | 271% |  |  | COc1ccc(NS(=O)(=O)c2cccc(N3CCC[C@@](C)(C(=O)O)C3)n2)nc1-c1ccccc1C1CC1 [Example 408, (R)-1-(6-(N-(6-(2-cyclopropylphenyl)-5-methoxypyridin-2-yl)sulfamoyl)pyridin-2-yl)-3-methylpiperidine-3-carboxylic Acid] | 
19 |  |  | 398% | 5.68 | CC(C)c1ccccc1-c1nc(NS(=O)(=O)c2cccc(N)n2)ccc1F [Example 35, 6-amino-N-(5-fluoro-6-(2-isopropylphenyl)pyridin-2-yl)pyridine-2-sulfonamide] | 
20 |  |  | 199% | 5.48 | Nc1cccc(S(=O)(=O)Nc2ccc(Cl)c(-c3ccccc3F)n2)n1 [Example 69, 6-amino-N-(5-chloro-6-(2-fluorophenyl)pyridin-2-yl)pyridine-2-sulfonamide] | 
21 |  |  | 197% | 5.58 | Cc1ccccc1-c1nc(NS(=O)(=O)c2cccc(N)n2)ccc1F [Example 70, 6-amino-N-(5-fluoro-6-(o-tolyl)pyridin-2-yl)pyridine-2-sulfonamide] | 
22 | 6.20 | 282% |  |  | CC(C)Oc1ccc(Cl)cc1-c1nc(NS(=O)(=O)c2cccc(N3CCC(C)(C(=O)O)CC3)n2)ccc1C(F)(F)F [Example 427, 1-(6-(N-(6-(5-chloro-2-isopropoxyphenyl)-5-(trifluoromethyl)pyridin-2-yl)sulfamoyl)pyridin-2-yl)-4-methylpiperidine-4-carboxylic Acid] | 
23 | 5.80 |  |  |  | CCC1(C(=O)O)CCCN(c2cccc(S(=O)(=O)Nc3ccc(Cl)c(-c4c(C)cccc4C)n3)n2)C1 (stereo not drawn) [Example 453, 1-(6-(N-(5-chloro-6-(2,6-dimethylphenyl)pyridin-2-yl)sulfamoyl)pyridin-2-yl)-3-ethylpiperidine-3-carboxylic Acid] | 
